Data as given in patent US12581252B2, “Substituted pyrrolo[3,4-b]pyridines as PI3K-α inhibitors” (Relay Therapeutics, Inc., priority 2020, dated 2026).

Target: H1047R PIK3CA enzyme (Homo sapiens, UniProt P42336, H1047R)
Test: ADP-Glo Biochemical PIK3CA Kinase Assay

Sequence of H1047R PIK3CA enzyme (P42336 whole entry H1047R): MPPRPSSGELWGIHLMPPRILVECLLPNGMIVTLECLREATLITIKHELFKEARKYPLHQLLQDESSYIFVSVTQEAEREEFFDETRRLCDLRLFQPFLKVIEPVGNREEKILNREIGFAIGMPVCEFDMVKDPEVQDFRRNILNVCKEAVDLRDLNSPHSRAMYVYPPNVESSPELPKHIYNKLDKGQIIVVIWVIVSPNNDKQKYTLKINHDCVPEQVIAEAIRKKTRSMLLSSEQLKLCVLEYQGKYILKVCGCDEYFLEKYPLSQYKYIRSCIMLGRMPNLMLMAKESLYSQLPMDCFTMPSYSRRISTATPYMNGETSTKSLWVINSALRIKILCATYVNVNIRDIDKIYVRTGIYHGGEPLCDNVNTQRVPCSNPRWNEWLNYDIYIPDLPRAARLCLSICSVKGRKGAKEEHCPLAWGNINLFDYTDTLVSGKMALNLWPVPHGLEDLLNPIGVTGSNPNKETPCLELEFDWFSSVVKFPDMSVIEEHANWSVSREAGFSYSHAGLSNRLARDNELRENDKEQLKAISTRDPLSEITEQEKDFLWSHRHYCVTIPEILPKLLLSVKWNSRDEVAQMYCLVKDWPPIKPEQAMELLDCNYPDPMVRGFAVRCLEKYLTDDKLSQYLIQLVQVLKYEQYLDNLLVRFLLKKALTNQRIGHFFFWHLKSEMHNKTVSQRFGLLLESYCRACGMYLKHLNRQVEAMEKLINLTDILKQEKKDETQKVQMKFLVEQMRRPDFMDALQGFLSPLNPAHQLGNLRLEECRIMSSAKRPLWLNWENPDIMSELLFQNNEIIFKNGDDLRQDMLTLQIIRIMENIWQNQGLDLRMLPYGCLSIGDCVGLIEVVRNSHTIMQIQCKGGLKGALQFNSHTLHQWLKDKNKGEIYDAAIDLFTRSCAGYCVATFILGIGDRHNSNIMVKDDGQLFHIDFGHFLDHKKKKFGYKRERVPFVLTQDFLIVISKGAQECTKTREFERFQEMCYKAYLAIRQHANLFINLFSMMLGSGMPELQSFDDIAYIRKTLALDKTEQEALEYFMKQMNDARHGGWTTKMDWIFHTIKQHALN
Sequence of H1047R PIK3CA enzyme (P27986 whole entry partner): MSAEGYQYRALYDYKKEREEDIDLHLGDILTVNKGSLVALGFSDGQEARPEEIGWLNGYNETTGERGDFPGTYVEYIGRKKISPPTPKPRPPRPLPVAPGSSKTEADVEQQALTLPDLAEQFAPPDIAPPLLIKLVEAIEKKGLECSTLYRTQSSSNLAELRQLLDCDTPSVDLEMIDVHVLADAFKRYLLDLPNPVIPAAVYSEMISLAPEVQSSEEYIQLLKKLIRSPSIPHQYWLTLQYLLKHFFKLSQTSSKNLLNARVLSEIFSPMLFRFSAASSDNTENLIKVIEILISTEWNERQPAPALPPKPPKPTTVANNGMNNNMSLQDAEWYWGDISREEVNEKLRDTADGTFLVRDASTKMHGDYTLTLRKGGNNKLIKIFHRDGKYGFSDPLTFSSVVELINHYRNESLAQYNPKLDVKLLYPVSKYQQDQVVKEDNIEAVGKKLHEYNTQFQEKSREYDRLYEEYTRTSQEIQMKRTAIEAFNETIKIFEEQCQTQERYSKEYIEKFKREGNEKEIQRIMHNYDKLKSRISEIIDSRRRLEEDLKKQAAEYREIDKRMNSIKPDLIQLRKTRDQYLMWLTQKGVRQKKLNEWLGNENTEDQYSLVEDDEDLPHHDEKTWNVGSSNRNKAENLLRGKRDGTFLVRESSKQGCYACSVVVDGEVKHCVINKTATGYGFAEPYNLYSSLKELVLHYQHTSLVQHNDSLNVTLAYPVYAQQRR

Row | IC50 [nM] | SMILES
1 | 100 to 500 | N#C[C@H]1C[C@H](c2cc(NC(=O)c3cc(F)cc(C(F)(F)F)c3)c3c(c2)C(=O)N[C@@H]3c2cc(F)ccc2Cl)C1 (single isomer, unassigned) [Compound I-1325]
2 | 1000 to 10000 | CC(C)(C)C1CCCN1C(=O)Nc1cccc2c1C(c1cc(F)ccc1Cl)NC2=O (single isomer, unassigned) [Compound I-2433]
3 | 500 to 1000 | O=C(Nc1cccc2c1C(C1=C(F)CCCC1)NC2=O)c1cc(F)cc(C(F)(F)F)c1 (racemic) [Compound I-1790]
4 | ≤ 100 | O=C(Nc1cc(-c2ccc3ncc(F)n3c2)cc2c1[C@H](c1cc(F)ccc1Cl)NC2=O)c1cc(F)cc(C(F)(F)F)c1 [Compound I-1870]
5 | 10000 to 100000 | O=C1NC(c2cc(F)ccc2Cl)c2c(NC(=O)N3CC(=O)N4CCCC4C3)cc(Br)cc21 (centres unmarked) [Compound I-766]
6 | 10000 to 100000 | Cc1ccccc1C1NC(=O)c2nccc(NC(=O)N3CCc4cnccc43)c21 (centres unmarked) [Compound I-248]
7 | ≤ 100 | Cc1ccccc1S(=O)(=O)Cc1cc(NC(=O)c2cc(F)cc(C(F)(F)F)c2)c2c(c1)C(=O)NC2c1cc(F)ccc1Cl (centres unmarked) [Compound I-1433]
8 | 10000 to 100000 | CC(C)(C)N[C@@H]1NC(=O)c2cccc(NC(=O)c3cc(F)cc(C(F)(F)F)c3)c21 (single isomer, unassigned) [Compound I-2247]
9 | ≤ 100 | N#Cc1cccc(S(=O)(=O)Cc2cc(NC(=O)c3cc(F)cc(C(F)(F)F)c3)c3c(c2)C(=O)NC3c2cc(F)ccc2Cl)c1 (centres unmarked) [Compound I-1491]
10 | 1000 to 10000 | CC(C)C1CCCN1C(=O)Nc1cccc2c1C(c1cc(F)ccc1Cl)NC2=O (mixture of isomers) [Compound I-2396]
11 | 1000 to 10000 | O=C1N[C@H](c2cccc(F)c2F)c2c(NC(=O)c3csc4ccccc34)ccnc21 [Compound I-23]
12 | 10000 to 100000 | CN1CCN(c2cc(-c3ccc4ncnn4c3)cc3c2C(c2cc(F)ccc2Cl)NC3=O)CC1 (centres unmarked) [Compound I-1952]
13 | 500 to 1000 | O=C(Nc1cc(-c2cncnc2)cc2c1[C@@H](c1cc(F)ccc1Cl)NC2=O)c1cc(F)cc(C(F)(F)F)c1 [Compound I-1094]
14 | ≤ 100 | Cn1cc(-c2cc(NC(=O)c3cc(F)cc(C(F)(F)F)c3)c3c(c2)C(=O)NC3c2cc(F)ccc2Cl)ccc1=O (centres unmarked) [Compound I-648]
15 | ≤ 100 | O=C(Nc1cc(-c2ccc3nncn3c2)cc2c1C(c1cc(F)ccc1Cl)NC2=O)c1cc(F)cc(C(F)(F)F)c1 (centres unmarked) [Compound I-821]
16 | 10000 to 100000 | CCN(C(=O)Nc1cccc2c1C(c1cc(F)ccc1Cl)NC2=O)c1ccc(F)cc1 (centres unmarked) [Compound I-2434]
17 | 1000 to 10000 | O=C1N[C@@H](c2cc(F)ccc2Cl)c2c(NC(=O)[C@H]3CC[C@@H](C(F)(F)F)C3)cccc21 [Compound I-2085]
18 | 500 to 1000 | O=C(Nc1cccc2c1C(c1cc(F)ccc1Cl)NC2=O)c1cc(O)cc(C(F)(F)F)c1 (centres unmarked) [Compound I-448]
19 | ≤ 100 | O=C(Nc1cc(-c2ccnc(C(F)F)c2)cc2c1C(c1cc(F)ccc1Cl)NC2=O)c1cc(F)cc(C(F)(F)F)c1 (centres unmarked) [Compound I-1933]
20 | ≤ 100 | Cc1ccccc1C1NC(=O)c2cc(C3(O)CC3)cc(NC(=O)c3nsc4ccccc34)c21 (centres unmarked) [Compound I-315, N-[6-(1-hydroxycyclopropyl)-3-(2-methylphenyl)-1-oxo-2,3-dihydro-1H-isoindol-4-yl]-1,2-benzothiazole-3-carboxamide]
21 | 1000 to 10000 | O=C(Nc1cc(Br)cc2c1C(c1cc(F)ccc1Cl)NC2=O)c1ccc(C(F)(F)F)o1 (centres unmarked) [Compound I-1423]
22 | ≤ 100 | O=C(Nc1cc(OC[C@@H]2CCO2)cc2c1[C@H](c1cc(F)ccc1Cl)NC2=O)c1cc(F)cc(C(F)(F)F)c1 (single isomer, unassigned) [Compound I-1517]

Row | IC50 [nM] | SMILES
23 | 1000 to 10000 | CN(C)c1cc(NC(=O)N2C[C@@](O)(C(F)(F)F)c3cc(F)ccc32)c2c(n1)C(=O)N[C@H]2c1cc(F)ccc1Cl (single isomer, unassigned) [Compound I-2691]
24 | 10000 to 100000 | O=C(Nc1cc(Br)cc2c1C(c1cc(F)ccc1Cl)NC2=O)c1cnn(-c2ccccc2)c1 (centres unmarked) [Compound I-561]
25 | 1000 to 10000 | O=C1N[C@H](c2cc(F)ccc2Cl)c2c(NC(=O)N3C[C@@](O)(C(F)(F)F)c4cc(F)ccc43)cc(F)cc21 (single isomer, unassigned) [Compound I-2629]
26 | 10000 to 100000 | O=C(Nc1cccc2c1[C@H]([C@@H]1CCCCC1=O)NC2=O)c1cc(F)cc(C(F)(F)F)c1 (racemic) [Compound I-2036]
27 | 1000 to 10000 | O=C1N[C@@H](c2cc(F)ccc2Cl)c2c(NC(=O)N3C[C@](O)(C(F)(F)F)c4cc(F)ccc43)cc(-n3ccccc3=O)cc21 (single isomer, unassigned) [Compound I-2529]
28 | ≤ 100 | CC(O)c1cc(NC(=O)c2cc(F)cc(C(F)(F)F)c2)c2c(c1)C(=O)NC2c1cc(F)ccc1Cl (racemic) [Compound I-664]
29 | 100 to 500 | CC(C)(O)Cc1cc(NC(=O)c2cc(F)cc(C(F)(F)F)c2)c2c(c1)C(=O)N[C@@H]2c1cc(F)ccc1Cl [Compound I-622]
30 | ≤ 100 | N#Cc1cnn(-c2cc(NC(=O)N3C[C@@H](O)c4cc(F)ccc43)c3c(c2)C(=O)N[C@H]3c2cc(F)ccc2Cl)c1 (single isomer, unassigned) [Compound I-2405]
31 | 10000 to 100000 | O=C1NC(c2cc(F)ccc2Cl)c2c1cc(-c1ccc3ncnn3c1)cc2N1CCNCC1 (centres unmarked) [Compound I-1908]
32 | ≤ 100 | O=C(O)Cc1ccncc1-c1cc(NC(=O)c2cc(F)cc(C(F)(F)F)c2)c2c(c1)C(=O)NC2c1cc(F)ccc1Cl (centres unmarked) [Compound I-1220]
33 | 100 to 500 | N#C[C@H]1C[C@@H](c2cc(NC(=O)c3cc(F)cc(C(F)(F)F)c3)c3c(c2)C(=O)N[C@H]3c2cc(F)ccc2Cl)C1 (single isomer, unassigned) [Compound I-1328]
34 | 100 to 500 | Cc1ccccc1C1NC(=O)c2c(C(N)=O)ccc(NC(=O)c3cc(F)cc(C(F)(F)F)c3)c21 (centres unmarked) [Compound I-339]
35 | 10000 to 100000 | CCOc1ncc(C(=O)Nc2cccc3c2C(c2ccccc2C)NC3=O)cc1F (centres unmarked) [Compound I-107]
36 | 1000 to 10000 | O=C(Nc1cc(Br)cc2c1C(c1cc(F)ccc1Cl)NC2=O)c1csc(Cl)c1Cl (centres unmarked) [Compound I-1417]
37 | 1000 to 10000 | O=C(Nc1cccc2c1C(c1cc(F)ccc1Cl)NC2=O)c1cscc1C(F)(F)F (centres unmarked) [Compound I-2361]
38 | 500 to 1000 | N#Cc1ccc(-c2cc(NC(=O)c3cc(F)cc(C(F)(F)F)c3)c3c(c2)C(=O)N[C@H]3c2cc(F)ccc2Cl)cn1 [Compound I-996]
39 | ≤ 100 | CS(=O)(Cc1cc(NC(=O)c2cc(F)cc(C(F)(F)F)c2)c2c(c1)C(=O)NC2c1cc(F)ccc1Cl)=NC#N (centres unmarked) [Compound I-1312]
40 | 1000 to 10000 | [2H]C1([2H])N(C(=O)Nc2cccc3c2[C@@H](c2cc(F)ccc2Cl)NC3=O)c2ccc(F)cc2[C@@]1(O)C(F)(F)F (single isomer, unassigned) [Compound I-2594]
41 | ≤ 100 | O=C(Nc1cc(-c2cn(C(F)F)cn2)cc2c1C(c1cc(F)ccc1Cl)NC2=O)c1cc(F)cc(C(F)(F)F)c1 (centres unmarked) [Compound I-1823]
42 | 100 to 500 | CN1CCN=C1Nc1cc(NC(=O)c2cc(F)cc(C(F)(F)F)c2)c2c(c1)C(=O)NC2c1cc(F)ccc1Cl (centres unmarked) [Compound I-2298]
43 | 10000 to 100000 | O=C1NC(c2cc(F)ccc2Cl)c2c(NC(=O)C3(c4ccc(Cl)c(Cl)c4)CCCC3)cc(Br)cc21 (centres unmarked) [Compound I-1636]

Row | SMILES | IC50 [nM]
44 | Nc1nc2cc(-c3cc(NC(=O)c4cc(F)cc(C(F)(F)F)c4)c4c(c3)C(=O)N[C@@H]4c3cc(F)ccc3Cl)ccn2n1 [Compound I-1446] | ≤ 100
